Experimental data published in PubChem BioAssay AID330 (DTP/NCI, 2004).
Several values for one entry are separate records, joined by “and”; a condition that tells them apart may be missing. Identical values can stand only once. Toxic doses and inconclusive results are not listed.

System: P388 leukemia ip, CD2F1 mice, survival T/C
Assay: NCI In Vivo Anticancer Drug Screen. Data for tumor model P388 Leukemia (intraperitoneal) in CD2F1 (CDF1) mice
Details: endpoint: median survival time, higher = longer survival
In short: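 Mice carrying the transplanted tumor received test compound or vehicle. Survival was recorded in each group, and the value is the treated-group measurement divided by that of the vehicle-treated control group.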

[1] = dose: 50.0 mg/kg/injection, schedule: Q01DX009 (ip), vehicle: saline with Tween-80
[2] = dose: 100.0 mg/kg/injection, schedule: Q01DX009 (ip), vehicle: saline with Tween-80
[3] = dose: 60.0 mg/kg/injection, schedule: Q01DX005 (ip), vehicle: saline with Tween-80
[4] = dose: 120.0 mg/kg/injection, schedule: Q01DX005 (ip), vehicle: saline with Tween-80
[5] = dose: 240.0 mg/kg/injection, schedule: Q01DX005 (ip), vehicle: saline with Tween-80
[6] = dose: 50.0 mg/kg/injection, schedule: Q01DX009 (ip), vehicle: Klucel (hydroxypropylcellulose) (HPC)
[7] = dose: 100.0 mg/kg/injection, schedule: Q01DX009 (ip), vehicle: Klucel (hydroxypropylcellulose) (HPC)
[8] = dose: 200.0 mg/kg/injection, schedule: Q01DX009 (ip), vehicle: Klucel (hydroxypropylcellulose) (HPC)
[9] = dose: 100.0 mg/kg/injection, schedule: Q04DX003 (ip), vehicle: saline
[10] = dose: 60.0 mg/kg/injection, schedule: Q01DX005 (ip), vehicle: saline
[11] = dose: 120.0 mg/kg/injection, schedule: Q01DX005 (ip), vehicle: saline
[12] = dose: 240.0 mg/kg/injection, schedule: Q01DX005 (ip), vehicle: saline
[13] = dose: 50.0 mg/kg/injection, schedule: Q01DX005 (ip), vehicle: saline with Tween-80
[14] = dose: 100.0 mg/kg/injection, schedule: Q01DX005 (ip), vehicle: saline with Tween-80
[15] = dose: 25.0 mg/kg/injection, schedule: Q01DX009 (ip), vehicle: Klucel (hydroxypropylcellulose) (HPC)
[16] = dose: 50.0 mg/kg/injection, schedule: Q01DX009 (ip), vehicle: saline

## CC(C)C(O)Cc1cc(=O)[nH]c2ccccc12 (centres undefined)
dose: 100.0 mg/kg/injection, schedule: Q04DX002 (ip), vehicle: saline with Tween-80
  T/C: 87 % of control
dose: 200.0 mg/kg/injection, schedule: Q04DX002 (ip), vehicle: saline with Tween-80
  T/C: 87 % of control
dose: 400.0 mg/kg/injection, schedule: Q04DX002 (ip), vehicle: saline with Tween-80
  T/C: 86 % of control

## O=C(COC1CCCCC1)OC1CCCCC1
dose: 50.0 mg/kg/injection, schedule: Q04DX003 (ip), vehicle: saline with Tween-80
  T/C: 100 % of control
dose: 100.0 mg/kg/injection, schedule: Q04DX003 (ip), vehicle: saline with Tween-80
  T/C: 100 % of control

## Cc1ccc(C)c2c1CCC2C (centres undefined)
dose: 25.0 mg/kg/injection, schedule: Q01DX009 (ip), vehicle: saline with Tween-80
  T/C: 101 % of control and 110 % of control
[1]
  T/C: 111 % of control and 116 % of control
[2]
  T/C: 104 % of control and 114 % of control

## COc1ccc(C(=O)CC(=O)CCC(=O)Nc2cc(C)ccc2C)cc1
[3]
  T/C: 101 % of control
[4]
  T/C: 105 % of control
[5]
  T/C: 97 % of control

## CN(CC(O)C(O)CN(C)N=O)N=O (centres undefined)
dose: 100.0 mg/kg/injection, schedule: Q01DX001 (ip), vehicle: Klucel (hydroxypropylcellulose) (HPC)
  T/C: 88 % of control
dose: 200.0 mg/kg/injection, schedule: Q01DX001 (ip), vehicle: Klucel (hydroxypropylcellulose) (HPC)
  T/C: 94 % of control
dose: 400.0 mg/kg/injection, schedule: Q01DX001 (ip), vehicle: Klucel (hydroxypropylcellulose) (HPC)
  T/C: 100 % of control

## OC(c1cc2cc(Cl)ccc2c2cc(C(F)(F)F)ccc12)C1CCCCN1 (centres undefined)
dose: 6.25 mg/kg/injection, schedule: Q01DX009 (ip), vehicle: saline with Tween-80
  T/C: 106 % of control
dose: 12.5 mg/kg/injection, schedule: Q01DX009 (ip), vehicle: saline with Tween-80
  T/C: 106 % of control

## Cc1cccn2c([N+](=O)[O-])cnc12
[1]
  T/C: 102 % of control
[2]
  T/C: 120 % of control
dose: 200.0 mg/kg/injection, schedule: Q01DX009 (ip), vehicle: saline with Tween-80
  T/C: 113 % of control

## NC(=S)N1CC=CCC1
[6]
  T/C: 99 % of control
[7]
  T/C: 101 % of control
[8]
  T/C: 101 % of control

## CC(=O)OC1CC2CCCCC2[N+](C)(C)C1 (centres undefined)
dose: 25.0 mg/kg/injection, schedule: Q04DX003 (ip), vehicle: saline
  T/C: 106 % of control
dose: 50.0 mg/kg/injection, schedule: Q04DX003 (ip), vehicle: saline
  T/C: 103 % of control
[9]
  T/C: 104 % of control

## CN1CC2(CO)C(c3ccccn3)N(C)C(c3ccccn3)C(CO)(C1)C2O (centres undefined)
[3]
  T/C: 107 % of control
[4]
  T/C: 104 % of control

## COc1nc(NC2OC(CO)C(O)C(O)C2O)c(C=O)c(=O)n1C (centres undefined)
[10]
  T/C: 93 % of control
[11]
  T/C: 100 % of control
[12]
  T/C: 99 % of control

## O=C(O)c1ccccc1-c1ccc2ccccc2c1
[13]
  T/C: 94 % of control
[14]
  T/C: 105 % of control
dose: 200.0 mg/kg/injection, schedule: Q01DX005 (ip), vehicle: saline with Tween-80
  T/C: 110 % of control

## CCOC(=O)C1CC(=O)c2ccc(OC)c(OC)c2C1 (centres undefined)
dose: 25.0 mg/kg/injection, schedule: Q01DX009 (ip), vehicle: other
  T/C: 103 % of control
dose: 50.0 mg/kg/injection, schedule: Q01DX009 (ip), vehicle: other
  T/C: 100 % of control
dose: 100.0 mg/kg/injection, schedule: Q01DX009 (ip), vehicle: other
  T/C: 94 % of control
dose: 200.0 mg/kg/injection, schedule: Q01DX009 (ip), vehicle: other
  T/C: 94 % of control
dose: 400.0 mg/kg/injection, schedule: Q01DX009 (ip), vehicle: other
  T/C: 98 % of control

## c1csc(C2N3CCN(CC3)C(c3cccs3)N3CCN2CC3)c1 (centres undefined)
[3]
  T/C: 100 % of control
[4]
  T/C: 104 % of control
[5]
  T/C: 103 % of control

## CCOC(=O)C(CC)Oc1cccc2c1oc1ccccc12 (centres undefined)
[15]
  T/C: 103 % of control
[6]
  T/C: 106 % of control
[7]
  T/C: 101 % of control
[8]
  T/C: 109 % of control

## O=C1CSC(=S)N1c1ccc2c(c1)OCO2
[3]
  T/C: 92 % of control
[4]
  T/C: 90 % of control
[5]
  T/C: 90 % of control

## N=C(N)c1cccc([N+](=O)[O-])c1
[16]
  T/C: 98 % of control
dose: 100.0 mg/kg/injection, schedule: Q01DX009 (ip), vehicle: saline
  T/C: 96 % of control

## CC1(C)CC(=O)C(=[N+]=[N-])C(=O)C1
dose: 7.5 mg/kg/injection, schedule: Q01DX005 (ip), vehicle: saline with Tween-80
  T/C: 105 % of control
dose: 15.0 mg/kg/injection, schedule: Q01DX005 (ip), vehicle: saline with Tween-80
  T/C: 105 % of control
dose: 30.0 mg/kg/injection, schedule: Q01DX005 (ip), vehicle: saline with Tween-80
  T/C: 102 % of control

## CC(N)C(=O)OCN1C(=O)C2C3C=CC(C2C1=O)C1C(=O)N(COC(=O)C(C)N)C(=O)C31 (centres undefined)
dose: 25.0 mg/kg/injection, schedule: Q01DX009 (ip), vehicle: water
  T/C: 100 % of control
dose: 50.0 mg/kg/injection, schedule: Q01DX009 (ip), vehicle: water
  T/C: 100 % of control
dose: 100.0 mg/kg/injection, schedule: Q01DX009 (ip), vehicle: water
  T/C: 112 % of control
dose: 200.0 mg/kg/injection, schedule: Q01DX009 (ip), vehicle: water
  T/C: 121 % of control

## CC(C)(Cc1nc2ccccc2[nH]1)Cc1nc2ccccc2[nH]1
dose: 7.5 mg/kg/injection, schedule: Q01DX005 (ip), vehicle: Klucel (hydroxypropylcellulose) (HPC)
  T/C: 99 % of control
dose: 15.0 mg/kg/injection, schedule: Q01DX005 (ip), vehicle: Klucel (hydroxypropylcellulose) (HPC)
  T/C: 94 % of control
dose: 30.0 mg/kg/injection, schedule: Q01DX005 (ip), vehicle: Klucel (hydroxypropylcellulose) (HPC)
  T/C: 91 % of control
dose: 60.0 mg/kg/injection, schedule: Q01DX005 (ip), vehicle: Klucel (hydroxypropylcellulose) (HPC)
  T/C: 90 % of control

## Cn1/c(=N\N)sc2ccc(S(=O)(=O)O)cc21
[6]
  T/C: 97 % of control
[7]
  T/C: 103 % of control
[8]
  T/C: 105 % of control

## c1ccc(-c2csc(-c3nc(-c4ccccc4)cs3)n2)cc1
[15]
  T/C: 117 % of control
[6]
  T/C: 113 % of control
[3]
  T/C: 99 % of control
[7]
  T/C: 118 % of control
[4]
  T/C: 96 % of control
[8]
  T/C: 110 % of control
[5]
  T/C: 96 % of control

## Cc1c(C)c2ccc(N(C)C)cc2[nH]c1=O
[6]
  T/C: 113 % of control
[7]
  T/C: 106 % of control
[8]
  T/C: 106 % of control

## NC1CCC[C@@H](O)[C@H]1O (some centres undefined)
[10]
  T/C: 104 % of control
[11]
  T/C: 103 % of control
[12]
  T/C: 98 % of control

## BrC[P+](CBr)(CBr)CBr
dose: 12.5 mg/kg/injection, schedule: Q01DX009 (ip), vehicle: saline
  T/C: 151 % of control
dose: 25.0 mg/kg/injection, schedule: Q01DX009 (ip), vehicle: saline
  T/C: 150 % of control
[13]
  T/C: 114 % of control and 117 % of control
[1]
  T/C: 151 % of control
[16]
  T/C: 163 % of control
[14]
  T/C: 123 % of control
[2]
  T/C: 157 % of control

## N#C/C(=C\c1ccc(Cl)cc1Cl)C(=O)N/N=C/c1ccc(Cl)cc1Cl
[9]
  T/C: 95 % of control
dose: 200.0 mg/kg/injection, schedule: Q04DX003 (ip), vehicle: saline
  T/C: 97 % of control
dose: 400.0 mg/kg/injection, schedule: Q04DX003 (ip), vehicle: saline
  T/C: 90 % of control

## CC(C)(C)c1ccnc(C(O)(C(F)(F)F)C(F)(F)F)c1
dose: 25.0 mg/kg/injection, schedule: Q01DX005 (ip), vehicle: Klucel (hydroxypropylcellulose) (HPC)
  T/C: 93 % of control
dose: 50.0 mg/kg/injection, schedule: Q01DX005 (ip), vehicle: Klucel (hydroxypropylcellulose) (HPC)
  T/C: 101 % of control
dose: 100.0 mg/kg/injection, schedule: Q01DX005 (ip), vehicle: Klucel (hydroxypropylcellulose) (HPC)
  T/C: 108 % of control
dose: 200.0 mg/kg/injection, schedule: Q01DX005 (ip), vehicle: Klucel (hydroxypropylcellulose) (HPC)
  T/C: 103 % of control

## O=C(O)/C(=N/NC(=O)c1ccccc1)c1ccccc1
dose: 100.0 mg/kg/injection, schedule: Q04DX002 (ip), vehicle: Klucel (hydroxypropylcellulose) (HPC)
  T/C: 98 % of control
dose: 200.0 mg/kg/injection, schedule: Q04DX002 (ip), vehicle: Klucel (hydroxypropylcellulose) (HPC)
  T/C: 98 % of control
dose: 400.0 mg/kg/injection, schedule: Q04DX002 (ip), vehicle: Klucel (hydroxypropylcellulose) (HPC)
  T/C: 92 % of control
